In ChEMBL document CHEMBL1201862, “PubChem BioAssay data set” (2004):
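Briefly, cells in 96-well plates were exposed to five compound concentrations for 48 h, and endpoints were estimated by linear interpolation. At the GI50, growth is halved.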 The source made the active and inactive calls. No stated cut-off is given here; in the data, active = GI50 up to about 1.1 µM and inactive = higher.

Tests used:
Test in all cases: NCI-60 cell line screen, 48 h
[1] = tested on: 786-0
[2] = tested on: A549
[3] = tested on: ACHN
[4] = tested on: CAKI-1
[5] = tested on: CCRF-CEM
[6] = tested on: COLO 205
[7] = tested on: DLD-1
[8] = tested on: DMS-114
[9] = tested on: DMS-273
[10] = tested on: EKVX
[11] = tested on: HCC 2998
[12] = tested on: HCT-116
[13] = tested on: HCT-15
[14] = tested on: HOP-18
[15] = tested on: HOP-62
[16] = tested on: HOP-92
[17] = tested on: HT-29
[18] = tested on: K562
[19] = tested on: KM-20L2
[20] = tested on: KM12
[21] = tested on: LOX IMVI
[22] = tested on: LXFL 529
[23] = tested on: M14
[24] = tested on: MOLT-4
[25] = tested on: Malme-3M
[26] = tested on: NCI-H226
[27] = tested on: NCI-H23
[28] = tested on: NCI-H460
[29] = tested on: NCI-H522
[30] = tested on: OVCAR-3
[31] = tested on: OVCAR-4
[32] = tested on: OVCAR-5
[33] = tested on: OVCAR-8
[34] = tested on: RPMI-8226
[35] = tested on: RXF 393
[36] = tested on: SF-268
[37] = tested on: SF-295
[38] = tested on: SF-539
[39] = tested on: SK-MEL-28
[40] = tested on: SK-MEL-2
[41] = tested on: SK-MEL-5
[42] = tested on: SK-OV-3
[43] = tested on: SN12C
[44] = tested on: SNB-19
[45] = tested on: SNB-75
[46] = tested on: SNB-78
[47] = tested on: SR
[48] = tested on: SW-620
[49] = tested on: TK-10
[50] = tested on: U-251
[51] = tested on: UACC-257
[52] = tested on: UACC-62
[53] = tested on: UO-31
[54] = tested on: XF498

In the case of `CC1(C)OC(=O)C(c2cccs2)C(=O)O1`, the GI50 [1] is reported as > 100 µM (inactive), the GI50 [2] is reported as > 100 µM (inactive) and the GI50 [3] is reported as > 100 µM (inactive). For the same compound, the GI50 [4] was > 100 µM (inactive), the GI50 [5] was > 100 µM (inactive) and the GI50 [6] was > 100 µM (inactive). The GI50 [7] was > 100 µM (inactive), the GI50 [8] was > 100 µM (inactive) and the GI50 [9] was > 100 µM (inactive). The GI50 [10] was > 100 µM (inactive), the GI50 [11] was > 100 µM (inactive) and the GI50 [12] was > 100 µM (inactive). For the same compound, the GI50 [13] was > 100 µM, the GI50 [14] was > 100 µM (inactive) and the GI50 [15] was > 100 µM (inactive). For the same compound, the GI50 [16] was > 100 µM (inactive), the GI50 [17] was > 100 µM (inactive) and the GI50 [18] was > 100 µM (inactive). For the same compound, the GI50 [19] was > 100 µM (inactive), the GI50 [20] was > 100 µM (inactive) and the GI50 [21] was > 100 µM (inactive). The GI50 [22] was > 100 µM (inactive), the GI50 [23] was > 100 µM (inactive) and the GI50 [24] was > 100 µM (inactive). The GI50 [25] was > 100 µM (inactive), the GI50 [26] was > 100 µM (inactive) and the GI50 [27] was > 100 µM (inactive). The GI50 [28] was > 100 µM (inactive), the GI50 [29] was > 100 µM (inactive) and the GI50 [30] was > 100 µM (inactive). For the same compound, the GI50 [31] was > 100 µM (inactive), the GI50 [32] was > 100 µM (inactive) and the GI50 [33] was > 100 µM (inactive). For the same compound, the GI50 [34] was > 100 µM (inactive), the GI50 [35] was > 100 µM (inactive) and the GI50 [36] was > 100 µM (inactive). For the same compound, the GI50 [37] was > 100 µM (inactive), the GI50 [38] was > 100 µM (inactive) and the GI50 [39] was > 100 µM (inactive). For the same compound, the GI50 [40] was > 100 µM (inactive), the GI50 [41] was > 100 µM (inactive) and the GI50 [42] was > 100 µM (inactive). For the same compound, the GI50 [43] was > 100 µM (inactive), the GI50 [44] was > 100 µM (inactive) and the GI50 [45] was > 100 µM (inactive). For the same compound, the GI50 [46] was > 100 µM (inactive), the GI50 [47] was > 100 µM (inactive) and the GI50 [48] was > 100 µM (inactive). For the same compound, the GI50 [49] was > 100 µM (inactive), the GI50 [50] was > 100 µM (inactive) and the GI50 [51] was > 100 µM (inactive). The GI50 [52] was > 100 µM (inactive), the GI50 [53] was > 100 µM (inactive) and the GI50 [54] was > 100 µM (inactive).
